# Molecular target: T1, PDK1 (Homo sapiens, UniProt O15530)
# T1 construct: purchased Thermo Fisher Scientific (Life Technologies) SelectScreen
# Experiment: SelectScreen Z'LYTE
# Assay type: biochemical
# Outline: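 Percent values come from Thermo SelectScreen profiling of NU5455, combining activity and binding assays. CSF1R was run in Z'LYTE format at Km app ATP, and CAMK1 in Adapta format with ATP listed at 10.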
# T1 sequence (O15530 whole entry): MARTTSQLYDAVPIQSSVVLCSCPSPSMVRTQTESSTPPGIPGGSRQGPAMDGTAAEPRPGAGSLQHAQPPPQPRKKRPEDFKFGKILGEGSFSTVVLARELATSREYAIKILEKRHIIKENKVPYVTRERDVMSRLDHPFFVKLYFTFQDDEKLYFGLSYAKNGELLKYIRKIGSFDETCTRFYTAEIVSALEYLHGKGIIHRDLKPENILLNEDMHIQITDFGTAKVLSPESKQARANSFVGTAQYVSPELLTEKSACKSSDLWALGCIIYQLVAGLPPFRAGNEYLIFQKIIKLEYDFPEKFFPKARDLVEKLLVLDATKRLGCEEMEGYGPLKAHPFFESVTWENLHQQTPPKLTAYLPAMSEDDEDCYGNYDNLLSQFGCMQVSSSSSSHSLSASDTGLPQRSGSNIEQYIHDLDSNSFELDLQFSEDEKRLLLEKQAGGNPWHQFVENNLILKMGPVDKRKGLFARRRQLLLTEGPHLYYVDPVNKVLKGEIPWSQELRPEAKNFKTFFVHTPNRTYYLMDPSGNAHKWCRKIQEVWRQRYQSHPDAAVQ
structure (smiles),measurement,value
CN(C(=O)CN1CCOCC1)c1ccc2sc3c(-c4cccc5c(=O)cc(N6CC7CCC(C6)O7)oc45)cccc3c2c1 [NU5455],inhibition at 1 µM,-7.3%
